Key:
[1] = cited from earlier work
[2] = tested on: chemosensory dysfunction associated with Parkinson's disease; assay: Treatment of Parkinson's disease chemosensory dysfunction; assay type: in vivo, human; settings: about 0.4 ml per day of 3.1 mg/ml theophylline, nasal spray twice daily in each naris, 7 days
Method: An adult human subject was treated for chemosensory dysfunction associated with Parkinson's disease. […] The subject was administered about 0.4 ml per day of a liquid composition comprising theophylline at a concentration of 3.1 mg/ml in a nasal spray device described herein. The subject administered the nasal spray twice daily in each naris.

[3] = tested on: phantosmia and phantogeusia; assay: Treatment of phantosmia in a subject; assay type: in vivo; settings: thioridazine composition in nasal spray device, 3× daily in each naris
Source text: A subject is admitted to a clinic for phantosmia and phantogeusia. The subject is prescribed a thioridazine composition in a nasal spray device described herein. The subject administers the nasal spray in an effective dose 3× daily in each naris. The nasal spray is characterized by a spray containing a D50 of about 15 μm to about 24 μm, a D90 of from about 30 μm to about 50 μm and where less than about 3% of the droplets in the plume of a spray have a size of less than about 10 μm.

Row | Compound | solubility in ethanol ([1]; ethanol) | solubility in water ([1]; water) | ability to taste and smell [2] | symptoms of the phantosmia and phantogeusia [3]
1 | Cn1c(=O)c2[nH]cnc2n(C)c1=O [Theophylline, theophylline] | 14 to 15 mg/mL | 7 to 8 mg/mL | regained their ability to taste and smell | –
2 | CSc1ccc2c(c1)N(CCC1CCCCN1C)c1ccccc1S2 (stereo not shown) [thioridazine] | – | – | – | reduced symptoms
